This note sets out measurements from PubChem BioAssay (NCI).

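Five concentrations, 48 hours, 96-well plates. GI50 marks 50% less growth. Definition used: TGI = concentration required for complete inhibition of growth.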 Bounds are passed on as bounds.

What all share (test): DTP human tumour cell line panel, 48 h
The test system of experiment [1] is SNB-75 CNS.
In experiment [2] the test system is HCT-116 colon.
For experiment [3], the system named is SK-OV-3 ovarian.
The subject of experiment [4] is HOP-62 NSCLC.
For experiment [5], the system named is EKVX NSCLC.
In experiment [6] the test system is RPMI-8226 leukemia.
The subject of experiment [7] is COLO 205 colon.
The subject of experiment [8] is MOLT-4 leukemia.
Experiment [9] has as its system SW-620 colon.
The test system of experiment [10] is OVCAR-5 ovarian.

The term GI50 denotes the concentration that inhibits growth by half. In general, TGI refers to the concentration at which net growth stops. Lower therefore signals greater sensitivity of the cells. On to `COc1cc2c(=O)n(CC3CCCCC3)c3c4cc[nH]c4ncc3c2cc1OC`, for which the GI50 in experiment [1] was 0.209 µM; in experiment [2], 1.01 µM; in experiment [3] it was 4.36 µM; in experiment [4], 2.54 µM; in experiment [5], 5.52 µM; in experiment [6], 3.1 µM. Besides, the GI50 in experiment [7] is 1.67 µM; in experiment [8] it was 5.64 µM; in experiment [9] it was 2 µM; in [10], 1.74 µM. Moreover, the TGI in experiment [1] was 1.9 µM; in experiment [2], 12.3 µM; in experiment [3] it was 24.2 µM; in experiment [4] it was 11.2 µM; in experiment [5], more than 50 µM; in experiment [6], more than 50 µM. For the same compound, the TGI in experiment [7] was 11.7 µM; in [8], more than 50 µM; in [9] it was 14.6 µM; in experiment [10], 24.2 µM.

As to `NC(=O)c1nc(-c2ccc(Cl)c(Cl)c2)nc2ccccc12`, the TGI in experiment [1] was 11.7 µM; in [2], more than 100 µM; in experiment [3], more than 27.3 µM; in [4], more than 100 µM; in [5], more than 100 µM; in experiment [6], more than 100 µM. The TGI in experiment [7], in experiment [8], in experiment [9] and in experiment [10] was more than 100 µM throughout.

Regarding `CNC(=O)c1cc(-c2ccc(F)cc2)cc(-c2ccc(S(=O)(=O)N3CCCC3)cc2)c1N`, the GI50 is 12.7 µM in experiment [1]; 11.6 µM in experiment [2]; more than 25 µM in experiment [3]; more than 25 µM in experiment [4]; 10.2 µM in [5]; 10.1 µM in experiment [6]. The GI50 in experiment [7] was 23.5 µM; in experiment [8], 15.5 µM; in [9] it was 18.6 µM; in experiment [10], more than 25 µM. Also, the TGI in experiment [1], in experiment [2], in [3], in [4], in experiment [5] and in experiment [6] was more than 25 µM in each case. Further, the TGI in experiment [7], in [8], in experiment [9] and in experiment [10] was more than 25 µM each time.

Consider `Cn1cc(-c2csc(-c3cn(C(=O)OC(C)(C)C)c4ccccc34)n2)c2cccnc21`, for which the GI50 in experiment [1] is 1.7 µM; in [2], 4.7 µM; in [3], 10.1 µM; in experiment [4], 12.1 µM; in experiment [5], 7.12 µM; in experiment [6], 7.66 µM. Further, the GI50 in [7] is 2.97 µM; in experiment [8] it was 8.88 µM; in [9], 4.53 µM; in [10] it was 14.6 µM. Also, the TGI was 8.63 µM in [1]; 17.8 µM in experiment [2]; 48.2 µM in [3]; 30.4 µM in experiment [4]; 33.7 µM in [5]; 36.7 µM in [6]. The TGI was determined as 14.6 µM in [7], 46.8 µM in experiment [8], 21.6 µM in experiment [9] and 29.9 µM in experiment [10].

Take `CS(=O)(=O)CCNCc1ccoc1-c1ccc2ncnc(Nc3ccc(OCc4ccccc4)cc3)c2c1`: the GI50 in experiment [1] is more than 7.41 µM; in experiment [2] it was more than 25 µM; in experiment [3], 1.5 µM; in experiment [4], more than 25 µM; in experiment [5], 1.03 µM; in experiment [6], more than 25 µM. The GI50 in experiment [7] was 24.8 µM; in [8] it was 20.1 µM; in [9] it was more than 25 µM; in [10], more than 25 µM. Besides, the TGI in [1], in experiment [2], in experiment [3], in experiment [4], in experiment [5] and in experiment [6] was more than 25 µM each time. For the same compound, the TGI in [7], in [8], in experiment [9] and in experiment [10] was more than 25 µM throughout.

Regarding `CC[C@@H](C(=O)[C@@H](C)[C@@H](O)[C@H](C)[C@@H]1O[C@@H]([C@@H](CC)C(=O)O)CC[C@@H]1C)[C@H]1O[C@]2(C=C[C@@H](O)[C@]3(CC[C@@](C)([C@H]4CC[C@](O)(CC)[C@H](C)O4)O3)O2)[C@H](C)C[C@@H]1C`, the GI50 was 1.05 µM in experiment [1]; 0.63 µM in experiment [2]; 3.6 µM in [3]; 1.12 µM in [4]; 1.11 µM in experiment [5]; 0.277 µM in experiment [6]. Besides, the GI50 in experiment [7] was 0.489 µM; in [8], 0.911 µM; in experiment [9], 1.56 µM; in experiment [10], 6.61 µM. The TGI in [1] was determined as 4.31 µM; in [2], 30.2 µM; in experiment [3], 48 µM; in experiment [4] it was 16.9 µM; in experiment [5], 24.8 µM; in experiment [6] it was 3.75 µM. Also, the TGI was 11 µM in [7], 5.17 µM in experiment [8], 12.6 µM in [9] and 80.5 µM in experiment [10].
